Holding throughout (assay): inhibition of tumour cell growth, NCI panel, 48 h
The test system of experiment [1] is IGROV1 ovarian.
Experiment [2] concerns COLO 205 colon.
The subject of experiment [3] is TK-10 renal.
In experiment [4] the test system is SK-MEL-5 melanoma.
Experiment [5] has as its system M14 melanoma.
Experiment [6] relates to KM12 colon.
The subject of experiment [7] is UO-31 renal.
The test system of experiment [8] is CCRF-CEM leukemia.
In experiment [9] the test system is ACHN renal.
The test system of experiment [10] is NCI-H522 lung.

“And” between values parts separate entries of the source, which are not always exact repeats. Identical values can stand only once.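 1) Cells in 96-well plates. 2) Compound, 48 h, 5 concentrations. 3) Linear interpolation between surrounding doses. 4) Unreached endpoint = highest concentration. The concentration for 50% growth inhibition is given as GI50. TGI denotes the concentration required for complete inhibition of growth.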 A value given as a limit tells only on which side of the number the result lay.

In the case of `C[C@]12CC[C@H](O)CC1=CC[C@@H]1[C@@H]2CC[C@]2(C)C(=N/N)/C(=N\O)C[C@@H]12`, the TGI was 75.7 µM in [1]; > 100 µM in experiment [2]; > 100 µM in experiment [3]; > 100 µM in experiment [4]; > 100 µM in experiment [5]; > 100 µM in experiment [6]. The TGI in experiment [7], in experiment [8], in experiment [9] and in experiment [10] was > 100 µM each time.
In the case of `Nc1nccc(-c2c[nH]c3cc(Br)ccc23)n1`, the TGI in experiment [1] is > 100 µM; in [2], > 100 µM; in [3] it was 59 µM; in experiment [4], 36.7 µM; in experiment [5], 43.9 µM; in experiment [6] it was 80.9 µM. For the same molecule, the TGI is 39 µM in experiment [7], > 100 µM in experiment [8], 66 µM in [9] and 38.4 µM in [10].
Take `CC(=O)Nn1c(=S)[nH]c2ccccc21`: the TGI in experiment [1], in experiment [2], in experiment [3], in experiment [4], in experiment [5] and in [6] was > 100 µM throughout. Further, the TGI in experiment [7], in experiment [8], in [9] and in [10] was > 100 µM in each case.
Take `Cc1ccnc(NS(=O)(=O)c2ccc(N=[N+]=[N-])cc2)n1`: the TGI in experiment [1], in experiment [2], in experiment [3], in [4], in [5] and in experiment [6] was > 100 µM in each case. Moreover, the TGI in experiment [7] was > 100 µM; in [8] it was > 49.7 µM; in [9] it was > 100 µM; in [10], > 100 µM.
For `c1ccc2c(c1)Cn1c-2nc2ccccc21`, the TGI in [1], in experiment [2], in experiment [3], in [4], in [5] and in experiment [6] was > 100 µM throughout. Also, the TGI in experiment [7] is 23 µM; in [8], > 100 µM; in [9], > 100 µM; in [10], > 100 µM.
For `N=c1nnc2ccc(Cl)cc2n1O`, the TGI in experiment [1] is > 100 µM; in [2], 64.5 µM; in experiment [3], > 100 µM; in experiment [4], > 100 µM; in experiment [5], > 100 µM; in [6], > 100 µM. The TGI in experiment [7], in experiment [8], in experiment [9] and in experiment [10] was > 100 µM each time.
Turning to `C[C@]12CCC3C4=C(CCC3C1CCC2=O)C(=O)[C@H]1O[C@H]1C4=O` (stereo not given in full), the TGI in experiment [1] is 4.74 µM; in [2] it was 9.23 µM; in experiment [3], 10.8 µM; in experiment [4] it was 23.9 µM; in experiment [5], 10.2 µM; in [6], 18.3 µM. Further, the TGI in experiment [7] is 5.1 µM; in [8], 4.07 µM; in experiment [9], 6.77 µM; in [10], 3.36 µM.
On to `Cc1ccc(-c2cc(-c3ccco3)c(C#N)c(=S)n2C2OC(CO)C(O)C(O)C2O)cc1` (stereo not given), for which the GI50 in experiment [1] was 21.4 µM and 47.1 µM; in experiment [4] it was 5.75 µM and 14.9 µM; in experiment [8] it was 23.2 µM; in experiment [9], 25.6 µM and 53.4 µM; in experiment [10], 29.5 µM and 65.4 µM. In addition, the TGI in experiment [1] was 74.5 µM and > 100 µM; in [2] it was > 100 µM; in experiment [3] it was > 100 µM; in experiment [4], 18.2 µM and 30.8 µM; in [5] it was 68.2 µM and 75.7 µM; in experiment [6], 76.9 µM and > 100 µM. The TGI is 52 µM and > 100 µM in experiment [7]; 99.1 µM in experiment [8]; > 100 µM in [9]; > 100 µM in experiment [10].
On to `C=C1CCN2CC[C@@H](OC(=O)/C(C)=C\C)[C@@H]12`, for which the TGI in [1], in experiment [2], in experiment [3], in experiment [4], in experiment [5] and in [6] was > 100 µM in each case. Besides, the TGI in [7], in [8], in experiment [9] and in experiment [10] was > 100 µM each time.
For the molecule `CN(C)CCNS(=O)(=O)c1ccc(N)cc1`, the TGI in experiment [1], in experiment [2], in experiment [3], in experiment [4], in experiment [5] and in experiment [6] was > 100 µM in each case. Also, the TGI in experiment [7], in experiment [8], in [9] and in [10] was > 100 µM in each case.
With `Cc1ccc(N(Cc2ccccc2)Cc2ccccc2)cc1`, the TGI in [1], in [2], in experiment [3], in experiment [4], in experiment [5] and in experiment [6] was > 100 µM in each case. Besides, the TGI in experiment [7] was > 100 µM; in experiment [8], 65.4 µM; in [9] it was > 100 µM; in [10], 86.8 µM.
As to `COP(=O)(OC)C1=c2c(C)noc2=C2C=COC2C1=O` (stereo not given), the TGI in [1], in experiment [2], in experiment [3], in [4], in experiment [5] and in experiment [6] was > 100 µM throughout. The TGI in experiment [7], in experiment [8], in experiment [9] and in [10] was > 100 µM in each case.
For `CCOC(=O)N1CCN(Cc2cc(=O)n3ccc(C)cc3n2)CC1`, the TGI in [1], in experiment [2], in experiment [3], in experiment [4], in experiment [5] and in experiment [6] was > 100 µM throughout. Moreover, the TGI in [7], in [8], in [9] and in experiment [10] was > 100 µM throughout.

These data come from PubChem BioAssay (NCI).
